Data on 13 compounds can be found in patent US20260077071A1, “Targeted Delivery of Theranostic Agents” (Peter MacCallum Cancer Institute, priority 2022, published 2026).

This experiment concerns the target T1, human full-length CCK-2 receptor (Homo sapiens, UniProt P32239).
T1 construct: stably transfected to over-express the human full-length CCK-2 receptor (A431-CCK-2R); expressed in transfected cells
T1 sequence (P32239 1-447): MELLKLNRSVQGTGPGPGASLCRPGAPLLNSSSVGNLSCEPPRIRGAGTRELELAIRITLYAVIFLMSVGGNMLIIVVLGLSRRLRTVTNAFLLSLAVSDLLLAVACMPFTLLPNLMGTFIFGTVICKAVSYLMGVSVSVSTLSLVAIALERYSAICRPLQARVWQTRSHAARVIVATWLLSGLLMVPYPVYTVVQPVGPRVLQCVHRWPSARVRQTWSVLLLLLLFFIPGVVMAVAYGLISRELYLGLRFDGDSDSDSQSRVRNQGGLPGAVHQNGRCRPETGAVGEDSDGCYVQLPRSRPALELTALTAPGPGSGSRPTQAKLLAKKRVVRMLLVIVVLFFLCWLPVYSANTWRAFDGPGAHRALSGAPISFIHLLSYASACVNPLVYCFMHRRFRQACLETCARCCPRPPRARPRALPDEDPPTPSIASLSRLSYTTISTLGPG
The experiment in a line: Competitive ligand binding against [^177Lu]Lu-DOTA-CP04 in A431-CCK-2R cells. As to the method:
CCK-2 receptor binding experiments were conducted using A431 (human epidermoid carcinoma) cells stably transfected to over-express the human full-length CCK-2 receptor (A431-CCK-2R). As a negative control, A431 cells stably transfected with an empty vector were analysed simultaneously (A431-EV). A431 cells were maintained in DMEM (Gibco, Australia) media supplemented with 10% foetal calf serum and 250 μg/mL G418 as described previously (Aloj L, et al., J Nucl Med., 2004, Mar; 45(3), 485-94). The affinity of peptides for the CCK-2R was evaluated using competitive binding assays against [^177Lu]Lu-DOTA-CP04 in A431-CCK-2R cells. Briefly, 48 h before the experiment cells were plated at a density of 650,000 cells per well in 6 well plates. On the day of the experiment the peptides were diluted in DMEM supplemented with 1% foetal calf serum to at least 7 different concentrations (0-400 nM) and approximately 50,000 cpm of [^177Lu]Lu-DOTA-CP04 was added to each dilution. Cells were washed twice in ice-cold binding buffer (DMEM supplemented with 1% foetal calf serum) and resuspended in 1.5 mL of the pre-prepared compound mix before being incubated at 37° C. for 1 h. Post-incubation the media was removed and kept for analysis (unbound fraction) and the cells were washed twice in ice-cold binding buffer, which was pooled with the unbound fraction. Finally, 1 M NaOH was added to the cells and allowed to incubate for 5 min before lysates were collected (bound fraction). A small volume of lysate was kept aside to determine protein concentration using the Pierce® BCA protein assay kit (Thermo Fisher, Australia). All samples were analysed using the Perkin Elmer 2480 Wizard2™ gamma counter (PerkinElmer, Massachusetts, USA) and were normalised according to protein concentration. Half-maximal inhibitory concentrations (IC50) were determined using nonlinear regression calculated using GraphPad Prism Software (GraphPad Software, California, USA).
The compounds were evaluated for their ability to disrupt the binding between CCK-2 receptor (CCK-2R) and [^177Lu]Lu-DOTA-CP04 using the methodology described above and compared to comparative example-2 (FIG. 2; Table 5).

[1] abbreviates: modified peptides based on Peptide C (Table 4), read-out: IC50.
The mark [2] stands for this setting: ^natGa chelated DOTA-compounds based on Peptide C (Table 5), read-out: IC50.

Structures are written as SMILES. Read-outs that look alike come from different tables or passages of the source. Square brackets hold non-standard residues; d marks the D form. Peptide text beside a SMILES is read from it. * marks the point of attachment. DOTA = O=C(O)CN1CCN(CC(=O)O)CCN(CC(=O)*)CCN(CC(=O)O)CC1; Phe(3,4,5-F3) = N[C@@H](Cc1cc(F)c(F)c(F)c1)C(=O)O; Phe(4-CF3) = N[C@@H](Cc1ccc(C(F)(F)F)cc1)C(=O)O; Phe(F5) = N[C@@H](Cc1c(F)c(F)c(F)c(F)c1F)C(=O)O; Phe(3,4-F2) = N[C@@H](Cc1ccc(F)c(F)c1)C(=O)O; Phe(4-Ac) = CC(=O)c1ccc(C[C@H](N)C(=O)O)cc1; Phe(4-CN) = N#Cc1ccc(C[C@H](N)C(=O)O)cc1; Phe(3-F) = N[C@@H](Cc1cccc(F)c1)C(=O)O; Phe(4-F) = N[C@@H](Cc1ccc(F)cc1)C(=O)O; 1Nal = N[C@@H](Cc1cccc2ccccc12)C(=O)O; NMeF = CN[C@@H](Cc1ccccc1)C(=O)O; NMeNle = CCCC[C@H](NC)C(=O)O; Sar = CNCC(=O)O

As to `CCCC[C@@H](C(=O)N[C@@H](CC(=O)O)C(=O)N[C@@H](Cc1cc(F)c(F)c(F)c1)C(N)=O)N(C)C(=O)[C@H](Cc1c[nH]c2ccccc12)NC(=O)CN(C)C(=O)[C@H](Cc1ccc(O)cc1)NC(=O)[C@H](C)NC(=O)[C@@H](CCC(=O)O)NC(=O)[C@@H](CCC(=O)O)NC(=O)[C@@H](CCC(=O)O)NC(=O)[C@@H](C)NC(=O)[C@@H](CCC(=O)O)NC(=O)[C@H](N)CCC(=O)O` [N] (H-[dE][dE][dA][dE][dE][dE]AY[Sar]W[NMeNle]D[Phe(3,4,5-F3)]-NH2; N-terminus assumed), the IC50 (in general, the point on the concentration scale where inhibition reaches its midpoint) under setting [1] was found to be 444 ± 32 pM. Same read-out and setting: the same measure for `CCCC[C@@H](C(=O)N[C@@H](CC(=O)O)C(=O)N[C@@H](Cc1ccc(F)cc1)C(N)=O)N(C)C(=O)[C@H](Cc1c[nH]c2ccccc12)NC(=O)CN(C)C(=O)[C@H](Cc1ccc(O)cc1)NC(=O)[C@H](C)NC(=O)[C@@H](CCC(=O)O)NC(=O)[C@@H](CCC(=O)O)NC(=O)[C@@H](CCC(=O)O)NC(=O)[C@@H](C)NC(=O)[C@@H](CCC(=O)O)NC(=O)[C@H](N)CCC(=O)O` [O] (H-[dE][dE][dA][dE][dE][dE]AY[Sar]W[NMeNle]D[Phe(4-F)]-NH2; N-terminus assumed): 368 ± 40 pM; for `CCCC[C@@H](C(=O)N[C@@H](CC(=O)O)C(=O)N[C@@H](Cc1ccc(C(F)(F)F)cc1)C(N)=O)N(C)C(=O)[C@H](Cc1c[nH]c2ccccc12)NC(=O)CN(C)C(=O)[C@H](Cc1ccc(O)cc1)NC(=O)[C@H](C)NC(=O)[C@@H](CCC(=O)O)NC(=O)[C@@H](CCC(=O)O)NC(=O)[C@@H](CCC(=O)O)NC(=O)[C@@H](C)NC(=O)[C@@H](CCC(=O)O)NC(=O)[C@H](N)CCC(=O)O` [P] (H-[dE][dE][dA][dE][dE][dE]AY[Sar]W[NMeNle]D[Phe(4-CF3)]-NH2; N-terminus assumed): 1140 pM.

With `CCCC[C@@H](C(=O)N[C@@H](CC(=O)O)C(=O)N[C@@H](Cc1cccc2ccccc12)C(N)=O)N(C)C(=O)[C@H](Cc1c[nH]c2ccccc12)NC(=O)CN(C)C(=O)[C@H](Cc1ccc(O)cc1)NC(=O)[C@H](C)NC(=O)[C@@H](CCC(=O)O)NC(=O)[C@@H](CCC(=O)O)NC(=O)[C@@H](CCC(=O)O)NC(=O)[C@@H](CCC(=O)O)NC(=O)[C@@H](CCC(=O)O)NC(=O)[C@@H](C)N` [Peptide A] (H-[dA][dE][dE][dE][dE][dE]AY[Sar]W[NMeNle]D[1Nal]-NH2), the “loss of binding affinity / activity” value (D-Ala analogue versus baseline comparative example-1) is “greater than 10 fold”. On to `CCCC[C@@H](C(=O)N[C@@H](CC(=O)O)C(=O)N[C@@H](Cc1cccc2ccccc12)C(N)=O)N(C)C(=O)[C@H](Cc1c[nH]c2ccccc12)NC(=O)CN(C)C(=O)[C@H](Cc1ccc(O)cc1)NC(=O)[C@H](C)NC(=O)[C@@H](CCC(=O)O)NC(=O)[C@@H](CCC(=O)O)NC(=O)[C@@H](CCC(=O)O)NC(=O)[C@@H](C)NC(=O)[C@@H](CCC(=O)O)NC(=O)[C@H](N)CCC(=O)O` [Peptide C] (H-[dE][dE][dA][dE][dE][dE]AY[Sar]W[NMeNle]D[1Nal]-NH2), for which the IC50 (D-Ala substituted peptides (Table 2), against [^177Lu]Lu-DOTA-CP04 in A431-CCK-2R cells, read-out: IC50) worked out at 180 pM. In addition, the “improvement upon the activity of CP04” value (versus CP04) is “greater than 10 fold”. The “affinity exceeding that of the comparative peptide” value (versus comparative example-1) was about 2 fold. Consider `CCCC[C@@H](C(=O)N[C@@H](CC(=O)O)C(=O)N[C@@H](Cc1ccc(O)cc1)C(N)=O)N(C)C(=O)[C@H](Cc1c[nH]c2ccccc12)NC(=O)CN(C)C(=O)[C@H](Cc1ccc(O)cc1)NC(=O)[C@H](C)NC(=O)[C@@H](CCC(=O)O)NC(=O)[C@@H](CCC(=O)O)NC(=O)[C@@H](CCC(=O)O)NC(=O)[C@@H](C)NC(=O)[C@@H](CCC(=O)O)NC(=O)[C@H](N)CCC(=O)O` [Peptide R] (H-[dE][dE][dA][dE][dE][dE]AY[Sar]W[NMeNle]DY-NH2; N-terminus assumed), for which the IC50 under setting [1] was determined as 1150 ± 96 pM. `CCCC[C@@H](C(=O)N[C@@H](CC(=O)O)C(=O)N[C@@H](Cc1ccc(F)c(F)c1)C(N)=O)N(C)C(=O)[C@H](Cc1c[nH]c2ccccc12)NC(=O)CN(C)C(=O)[C@H](Cc1ccc(O)cc1)NC(=O)[C@H](C)NC(=O)[C@@H](CCC(=O)O)NC(=O)[C@@H](CCC(=O)O)NC(=O)[C@@H](CCC(=O)O)NC(=O)[C@@H](C)NC(=O)[C@@H](CCC(=O)O)NC(=O)[C@H](N)CCC(=O)O` [Peptide S] (H-[dE][dE][dA][dE][dE][dE]AY[Sar]W[NMeNle]D[Phe(3,4-F2)]-NH2; N-terminus assumed) displayed an IC50 of 2660 ± 226 pM. As for `CCCC[C@@H](C(=O)N[C@@H](CC(=O)O)C(=O)N[C@@H](Cc1ccc(C#N)cc1)C(N)=O)N(C)C(=O)[C@H](Cc1c[nH]c2ccccc12)NC(=O)CN(C)C(=O)[C@H](Cc1ccc(O)cc1)NC(=O)[C@H](C)NC(=O)[C@@H](CCC(=O)O)NC(=O)[C@@H](CCC(=O)O)NC(=O)[C@@H](CCC(=O)O)NC(=O)[C@@H](C)NC(=O)[C@@H](CCC(=O)O)NC(=O)[C@H](N)CCC(=O)O` [Q] (H-[dE][dE][dA][dE][dE][dE]AY[Sar]W[NMeNle]D[Phe(4-CN)]-NH2; N-terminus assumed), under setting [1], the IC50 stood at 1570 ± 89 pM. For the compound `CCCC[C@@H](C(=O)N[C@@H](CC(=O)O)C(=O)N[C@@H](Cc1c(F)c(F)c(F)c(F)c1F)C(N)=O)N(C)C(=O)[C@H](Cc1c[nH]c2ccccc12)NC(=O)CN(C)C(=O)[C@H](Cc1ccc(O)cc1)NC(=O)[C@H](C)NC(=O)[C@@H](CCC(=O)O)NC(=O)[C@@H](CCC(=O)O)NC(=O)[C@@H](CCC(=O)O)NC(=O)[C@@H](C)NC(=O)[C@@H](CCC(=O)O)NC(=O)[C@H](N)CCC(=O)O` [T] (H-[dE][dE][dA][dE][dE][dE]AY[Sar]W[NMeNle]D[Phe(F5)]-NH2; N-terminus assumed), the IC50 under setting [1] is 607 ± 52 pM.

Take `CCCC[C@@H](C(=O)N[C@@H](CC(=O)O)C(=O)N[C@@H](Cc1cccc(F)c1)C(N)=O)N(C)C(=O)[C@H](Cc1c[nH]c2ccccc12)NC(=O)CN(C)C(=O)[C@H](Cc1ccc(O)cc1)NC(=O)[C@H](C)NC(=O)[C@@H](CCC(=O)O)NC(=O)[C@@H](CCC(=O)O)NC(=O)[C@@H](CCC(=O)O)NC(=O)[C@@H](C)NC(=O)[C@@H](CCC(=O)O)NC(=O)[C@H](N)CCC(=O)O` [U] (H-[dE][dE][dA][dE][dE][dE]AY[Sar]W[NMeNle]D[Phe(3-F)]-NH2; N-terminus assumed): the IC50 under setting [1] worked out at 305 ± 13 pM. On the same count and under the same terms, the value for `CCCC[C@@H](C(=O)N[C@@H](CC(=O)O)C(=O)N[C@@H](Cc1ccc(C(C)=O)cc1)C(N)=O)N(C)C(=O)[C@H](Cc1c[nH]c2ccccc12)NC(=O)CN(C)C(=O)[C@H](Cc1ccc(O)cc1)NC(=O)[C@H](C)NC(=O)[C@@H](CCC(=O)O)NC(=O)[C@@H](CCC(=O)O)NC(=O)[C@@H](CCC(=O)O)NC(=O)[C@@H](C)NC(=O)[C@@H](CCC(=O)O)NC(=O)[C@H](N)CCC(=O)O` [V] (H-[dE][dE][dA][dE][dE][dE]AY[Sar]W[NMeNle]D[Phe(4-Ac)]-NH2; N-terminus assumed) was 948 ± 52 pM. As for `CCCC[C@@H](C(=O)N[C@@H](CC(=O)O)C(=O)N[C@@H](Cc1cccc2ccccc12)C(N)=O)N(C)C(=O)[C@H](Cc1c[nH]c2ccccc12)NC(=O)CN(C)C(=O)[C@H](Cc1ccc(O)cc1)NC(=O)[C@H](C)NC(=O)[C@@H](CCC(=O)O)NC(=O)[C@@H](CCC(=O)O)NC(=O)[C@@H](CCC(=O)O)NC(=O)[C@@H](C)NC(=O)[C@@H](CCC(=O)O)NC(=O)[C@@H](CCC(=O)O)NC(=O)CN1CCN(CC(=O)O)CCN(CC(=O)O)CCN(CC(=O)O)CC1` [^natGa-1, metal not drawn] ({DOTA}-[dE][dE][dA][dE][dE][dE]AY[Sar]W[NMeNle]D[1Nal]-NH2), the IC50 under setting [2] turned out to be 80 pM. As to `CCCC[C@@H](C(=O)N[C@@H](CC(=O)O)C(=O)N(C)[C@@H](Cc1ccccc1)C(N)=O)N(C)C(=O)[C@H](Cc1c[nH]c2ccccc12)NC(=O)CN(C)C(=O)[C@H](Cc1ccc(O)cc1)NC(=O)[C@H](C)NC(=O)[C@@H](CCC(=O)O)NC(=O)[C@@H](CCC(=O)O)NC(=O)[C@@H](CCC(=O)O)NC(=O)[C@@H](C)NC(=O)[C@@H](CCC(=O)O)NC(=O)[C@@H](CCC(=O)O)NC(=O)CN1CCN(CC(=O)O)CCN(CC(=O)O)CCN(CC(=O)O)CC1` [^natGa-2, metal not drawn] ({DOTA}-[dE][dE][dA][dE][dE][dE]AY[Sar]W[NMeNle]D[NMeF]-NH2), under setting [2], the IC50 was determined as 185 pM.
